Measurements: patent publication US9844546B2, “Antibody against human HIF hydroxylase” (OXFORD UNIVERSITY INNOVATION LIMITED, priority 2001, dated 2017)

Columns and labels:
[1] = test system: HIF-α prolyl-hydroxylase (HIF-PH) of cell extract; assay: Modifying activity (HIF-PH) of cell extract on HIF substrate (Gal/HIF-1α549-582/VP16 or 19:WT), pVHL capture assay; type: biochemical, mammalian; conditions: for pVHL binding after treatment of Gal-Hif549-582-VP16 with cell extract in the presence of inhibitor: SDS-PAGE and autoradiography; for Disruption of HIF-VHL interaction: In-vitro inhibitor; for effect of pretreatment of extracts on modifying activity: clotrimazole 10 μM, methyl-viologen 1 mM, NADase 20 mU/ml
Experimental: The unlabelled HIF-1α substrate was immunopurified on beads, washed, and aliquots incubated under different test conditions in buffer or cell extract. After further washing, the beads were assayed for ability to interact with 35-S labelled pVHL IVTT (21) which was then visualised by fluorography.
The capture of labelled pVHL by different HIF substrates was monitored after exposure to various test conditions.
We went on to test a series of 2-oxoglutarate analogues which act as competitive inhibitors of this class of enzyme (29) for ability to inhibit HIF-PH as assessed by the ability of cell extracts to modify either HIF polypeptide (19:WT) or a HIF fusion protein (Gal/HIF-1α549-582/VP16) so as to promote pVHL capture. […] In one such experiment the effect of N-oxalylglycine on pVHL capture by a biotinylated HIF polypeptides as substrate was monitored. The WT:19 and 19:Pro564Hyp polypeptides described above were used as substrates. […] The effect of dimethyl-oxalyglycine on HIF-1α expression was also studied. HIF-1α immunoblot analysis of extracts of Hep3B and U2OS cells exposed to dimethyl-oxalylgylcine (0, 0.1 or 1.0 mM) for 6 hours was carried out. […]

[2] = test system: collagen prolyl-hydroxylase (CPH); conditions: cited from earlier work
HIF-1α/pVHL interaction = molecular target: T1, HIF-1α/pVHL interaction (Homo sapiens, UniProt P40337); assay: Polypeptide blocking assay of HIF-1α and pVHL.HA IVTT mixture, anti-HA immunoprecipitation; type: binding
T1 construct: made in house; host or cells: TNT rabbit reticulocyte lysate (Promega), in vitro transcription/translation
T1 sequence (P40337 whole entry): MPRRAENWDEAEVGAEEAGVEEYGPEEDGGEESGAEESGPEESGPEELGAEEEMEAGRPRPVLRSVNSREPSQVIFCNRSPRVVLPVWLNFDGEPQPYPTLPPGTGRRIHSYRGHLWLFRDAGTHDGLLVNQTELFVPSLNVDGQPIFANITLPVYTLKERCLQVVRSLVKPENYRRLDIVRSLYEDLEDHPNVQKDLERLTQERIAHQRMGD
Experimental: Further studies were performed using synthetic polypeptides as inhibitors of the HIF-1α/pVHL interaction (23). […] Results for a series of polypeptides derived from this domain are summarized in FIG. 1B and implicate a similar minimal interaction domain. […] This polypeptide comprises HIF-1α polypeptide residues 556 to 574 and its ability to block binding following exposure to a variety of direct oxidation conditions was assessed.
We synthesized a polypeptide (HIF-1α residues 556-574), containing a trans-4-hydroxy-S-proline residue at position 564 (19:Pro564Hyp), since the trans-4-hydroxylation is the commonest enzymatic proline oxidation (25). A polypeptide blocking assay was carried out using the 19:Pro564Hyp modified polypeptide and, as a control, the unmodified polypeptide without the trans-4-hydroxylation (19:WT). The 19:WT polypeptide was either incubated with cell extract before the binding assay or was untreated. The 19:Pro564Hyp polypeptide was added to a mixture of HIF-1α and pVHL-HA IVTTs at a concentration of 1, 0.25, 0.05 or 0.01 μM and the cell extract treated or untreated 19:WT polypeptide at a concentration of 0.5 μM. Interaction of HIF-1α with pVHL was then assayed by anti-HA immunoprecipitation. […] A pVHL capture assay was then carried out using biotinylated synthetic polypeptides. The same polypeptides, 19:Pro564Hyp and 19:WT were assessed for the ability to capture wild type or mutant (Pro86His) pVHL. […] In both cases capture was specific for wild type, as opposed to mutant, pVHL.
• 1. G. L. Semenza, Genes Dev 14, 1983-91. (2000). • 2. N. V. Iyer, et al., Genes Dev. 12, 149-162 (1997). • 3. E. Maltepe, J. V. Schmidt, D. Baunoch, C. A. Bradfield, M. C. Simon, Nature 386, 403-407 (1997). • 4. G. L. Wang, B.-H. Jiang, E. A. Rue, G. L. Semenza, Proc. Natl. Acad. Sci. USA 92, 5510-5514 (1995). • 5. S. Salceda, J. Caro, J. Biol. Chem. 272, 22642-22647 (1997). • 6. L. E. Huang, J. Gu, M. Schau, H. F. Bunn, Proc. Natl. Acad. Sci. USA 95, 7987-7992 (1998). • 7. M. S. Wiesener, et al., Blood 92, 2260-2268 (1998). • 8. P. H. Maxwell, et al., Nature 399, 271-275 (1999). • 9. K. Iwai, et al., Proc. Natl. Acad. Sci. USA 96, 12436-12441 (1999). • 10. J. Lisztwan, G. Imbert, C. Wirbelauer, M. Gstaiger, W. Krek, Genes Dev 13, 1822-33 (1999). • 11. M. E. Cockman, et al., J Biol Chem (2000). • 12. M. Ohh, et al., Nat Cell Biol 2, 423-7. (2000). • 13. T. Kamura, et al., Proc Natl Acad Sci USA 97, 10430-5. (2000). • 14. K. Tanimoto, Y. Makino, T. Pereira, L. Poellinger, Embo J 19, 4298-309. (2000). • 15. M. A. Goldberg, S. P. Dunning, H. F. Bunn, Science 242, 1412-1415 (1988). • 16. G. L. Wang, G. L. Semenza, Blood 82, 3610-3615 (1993). • 17. G. L. Semenza, Cell 98, 281-284 (1999). • 18. Hypoxia (<0.1% oxygen) was obtained in a workstation with O2, CO2 and temperature control (Ruskinn Technologies, Leeds, UK). For hypoxic harvest, buffers were preincubated in the chamber overnight. RCC4-VHL.HA, labelling conditions and co-immunoprecipitation assays have been described previously (11); in the current study 12.5 μM MG132 was used for proteasomal inhibition. For standard harvest, the cells were removed from the chamber after hypoxic exposure, prior to cell lysis. Co-immunoprecipitation assays on all lysates were performed at 4° C. under ambient oxygen conditions. […] When programming in hypoxia, reaction mix was preincubated in the workstation for 10 minutes before addition of the DNA template. […]

HIF = assay: Induction of HIF in tissue culture by esterified equivalents; type: cell-based; conditions: In-vivo esterified equivalent
[3] = test system: HIF hydroxylase (HPH activity); assay: HIF hydroxylase (HPH) inhibition, statements of the description; type: biochemical

For `COC(=O)CNC(=S)C(=O)OC` [Is1], the “pVHL binding after treatment of Gal-Hif549-582-VP16 with cell extract in the presence of inhibitor” value [1] was “reduced pVHL binding”.

For `O=C(O)CNC(=O)C(=O)O` [NK87, oxalylglycine], the “Disruption of HIF-VHL interaction” value [1] was “Yes”, the “pVHL binding after treatment of Gal-Hif549-582-VP16 with cell extract in the presence of inhibitor” value [1] was “reduced binding of pVHL” and the “pVHL binding after treatment with cell extract in the presence of inhibitor and additional 2-oxoglutarate” value ([1]; plus additional 2-oxoglutarate) was “strong binding”.

For `CC(NC(=O)C(=O)O)C(=O)O` (racemic) [(RS)-N-oxaloalanine], the “inhibition of CPH” value [2] is listed as “poor inhibitor”.

In the case of `Clc1ccccc1C(c1ccccc1)(c1ccccc1)n1ccnc1` [clotrimazole, reference compound], the “effect of pretreatment of extracts on modifying activity” value [1] is reported as “did not significantly affect activity”.

With “34 residue sequence encompassing amino acids 549-582: synthetic polypeptide, HIF-1α residues 549-582” the “blocking of HIF-1α/pVHL interaction by polypeptide after exposure to cell extract” value (HIF-1α/pVHL interaction; cell extract supplemented with Fe(II)) was “blocking activity was strikingly induced” and the “blocking of HIF-1α/pVHL interaction by polypeptide not exposed to cell extract” value (HIF-1α/pVHL interaction; untreated polypeptide) was “unable to block interaction”.

In the case of `CCOC(=O)c1cccc(C(=O)OCC)n1` [2, 6 diethylpyridine dicarboxylate], the “Induction of HIF in tissue culture” value (HIF) is reported as “No”.

For `N[C@@H](CCC(=O)N[C@@H](CS)C(=O)NCC(=O)O)C(=O)O` [glutathione, gamma-glutamyl-cysteinyl-glycine], the “inhibition of HIF hydroxylase / HPH” value [3] was “inhibitors of HPH”.

In the case of `COCCNC(=O)c1ccncc1C(=O)NCCOC` [Is8], the “pVHL binding after treatment of Gal-Hif549-582-VP16 with cell extract in the presence of inhibitor” value [1] is reported as “reduced pVHL binding”.

For `C[C@@H](NC(=O)C(=O)O)C(=O)O` [NK82, oxalyl D-alanine], the “Disruption of HIF-VHL interaction” value [1] was “No”.

With `O=C(NO)c1ccccc1` [benzohydroxamic acid] the “pVHL binding after treatment of Gal-Hif549-582-VP16 with cell extract in the presence of inhibitor” value [1] was “reduced pVHL binding”.

In the case of `CCOC(=O)c1ccnc(C(=O)OCC)c1` [2, 4 diethylpyridine dicarboxylate, 2,4-diethylpyridine dicarboxylate], the “inhibition of HIF hydroxylase / HPH” value [3] is given as “found not to inhibit HPH”, the “Induction of HIF in tissue culture” value (HIF) is given as “No” and the “inhibition of CPH” value [2] is given as “known CPH inhibitor”.

With `O=C(O)CNC(=S)C(=O)O` [Is3] the “pVHL binding after treatment of Gal-Hif549-582-VP16 with cell extract in the presence of inhibitor” value [1] was “reduced pVHL binding”.

In the case of `O=C(O)c1ccnc(C(=O)O)c1` [2, 4 pyridine dicarboxylic acid], the “Disruption of HIF-VHL interaction” value [1] is reported as “Yes”.

In the case of `CC(C)[C@H](NC(=O)C(=O)O)C(=O)O` [NK80], the “Disruption of HIF-VHL interaction” value [1] is reported as “No”.

In the case of `C[n+]1ccc(-c2cc[n+](C)cc2)cc1` [methyl-viologen, reference compound], the “effect of pretreatment of extracts on modifying activity” value [1] is reported as “did not significantly affect activity”.

For `C[C@H](NC(=O)C(=O)O)C(=O)O` [NK81, oxalyl L-alanine], the “Disruption of HIF-VHL interaction” value [1] was “Yes”.

For `CC(C)[C@H](NC(=O)C(=O)O)C(=O)O` [(S)-oxalovaline], the “inhibition of HIF hydroxylase / HPH” value [3] was “little or no activity”.

For `CCOC(=O)c1ccc(O)c(O)c1` [ethyl dihydroxybenzoate], the “pVHL binding after treatment of Gal-Hif549-582-VP16 with cell extract in the presence of inhibitor” value [1] was “reduced pVHL binding”.

With `C[C@@H](NC(=O)C(=O)O)C(=O)O` [N-oxalyl-2R-alanine] the “inhibition of modifying activity of cell extract on 19:WT (pVHL capture)” value ([1]; N-oxalylglycine 0.2-1 mM, overcome by 5 mM 2-oxoglutarate) was “not” and the “inhibition of HIF hydroxylase / HPH” value [3] was “also an inhibitor”.

In the case of `COC(=O)C(=O)NC(C)C(=O)OC` [Methylmethoxalyl-D/L-alanine], the “Induction of HIF in tissue culture” value (HIF) is reported as “No”.

With `CCOC(=O)c1ccc(C(=O)OCC)nc1` [2, 5 diethylpyridine dicarboxylate] the “Induction of HIF in tissue culture” value (HIF) was “No”.
